According to US20020055458A1, “Method for the prevention and treatment of retinopathy” (priority 2000, published 2002):

Assays:
[1] = system: optic nerve oxygen tension (ONPo2); details: pig; Stefánsson et al., IOVS 1999; cited from earlier work
[2] = system: diabetic retinopathy in patients with diabetes mellitus; assay: Retrospective clinical study of progression of diabetic retinopathy in diabetics on glaucoma eye drops; type: in vivo, human; details: for two year event rate (progression of retinopathy): diabetic patients on eye drops for glaucoma or ocular hypertension, 2 years from onset of medication, CAI group n=19, non-CAI group n=12
Description: In a retrospective clinical study, the hypothesis that dorzolamide eye drops (Trusopt®) used bid or tid for glaucoma or ocular hypertension would slow the progression of diabetic retinopathy in patients with diabetes mellitus was tested. Since 1980, a screening program has been in place for diabetic eye disease at the Department of Ophthalmology, University of Iceland, Reykjavik, Iceland. Eye examinations of diabetic patients have been performed annually and examination results have been documented. A retrospective study was undertaken to find those diabetics who were using CAIs or beta-blockers (such as timolol) for either glaucoma or ocular hypertension. These candidates were selected from the general population of the screening program. In total, 31 patients were found. Of these 31, 19 were prescribed CAIs or a combination of CAIs and beta-blockers. The remaining 12 patients were taking a non-CAI medication and served as a control group in the study. The examination findings were reviewed to determine if the changes in retinopathy rating could be associated with CAI use. Also noted was historical information such as length of time since diabetes had been diagnosed, type of medication and time span of usage, visual acuity and other relevant comments. Of those using a CAI, 12 were men and seven were women. The mean age was 67 (range 28-80) for men and 73 (range 62-81) for women. The average time since diagnosis of diabetes mellitus was 14.1 years (SD=9.7 years). The average frequency of check-ups was every 9.1 months (SD=10.7 months). There was an average of 7.4 years of eye examinations and fundus photographs on record (SD=6 years) and the patients were on a CAI for an average of 18.2 months (SD=14.4 months). Of those in the non-CAI (control) group, seven were men and five were women. The mean age was 73 (range 54-82) for men and 75 (range 67-86) for women. The average time since diabetic diagnosis was 15.3 years (SD=7.8 years). The average frequency of check-ups was every 10.9 months (SD=7.9 months). There was an average of 6.2 years of eye examinations and fundus photographs on record (SD=4 years) and the patients were on medication for an average of 58.8 months (SD=52.4 months).

SMILES	effect on optic nerve oxygen tension (ONPo2) [1]	two year event rate (progression of retinopathy) [2] [%]	development of sight-threatening retinopathy during the treatment period ([2]; diabetics in the treated group)	rate of progression of diabetic retinopathy compared with diabetics receiving timolol eye drops and with the total population of diabetics in Iceland ([2]; diabetics using eye drops on a regular basis)	overall event rate (retinopathy change) for the entire observation period ([2]; non-CAI (control) group, 12 diabetic patients, entire observation period) [%]
CC(=O)Nc1nnc(S(N)(=O)=O)s1 [Acetazolamide, N-[5-(aminosulfonyl)-1,3,4-thiadiazol-2-yl]acetamide]	increased ONPo2	–	–	–	–
CCN[C@H]1C[C@H](C)S(=O)(=O)c2sc(S(N)(=O)=O)cc21 [dorzolamide]	increased ONPo2	0	none	lower rate of progression of diabetic retinopathy	–
CC(C)(C)NC[C@H](O)COc1nsnc1N1CCOCC1 [timolol]	–	8.3	–	–	25
